Experimental data reported in patent publication US10556888B2, “Pyrazole compounds or salts thereof, preparation methods therefor, herbicidal compositions and use thereof” (QINGDAO KINGAGROOT CHEMICAL COMPOUNDS CO., LTD, priority 2015, dated 2020).

What was measured:
[1] = test system: Monocotyledonous and dicotyledonous weed; experiment: Post-emergence test experiment, weed control effect (Table 2); type: in vivo; design: key to weed control effect, Setaria viridis (level) / weed control effect, Rorippa indica (level) / weed control effect, Abutilon theophrasti (level) / weed control effect, Echinochloa crus-galli (level) / weed control effect, Digitaria sanguinalis (level): Level 10: completely dead; Level 9: above 90% growth inhibition rate; Level 8: above 80% growth inhibition rate; Level 7: above 70% growth inhibition rate; Level 6: above 60% growth inhibition rate; Level 5: above 50% growth inhibition rate; Level 4: above 30% growth inhibition rate; Level 3: above 20% growth inhibition rate; Level 2: above 10% growth inhibition rate; Level 1: above 1-10% growth inhibition rate; Level 0: no effect; settings: 3 weeks after spraying, greenhouse
Method: (§1) Post-emergence test experiment: Monocotyledonous and dicotyledonous weed seeds and main crop seeds (i.e. wheat, corn, rice, soybean, cotton, oilseed, millet and sorghum.) were put into a plastic pot loaded with soil. Then covered with 0.5-2 cm soil, the seeds were allowed to grow in good greenhouse environment. The test plants were treated at 2-3 leaf stage 2-3 weeks after sowing. The test compounds of the invention were dissolved with acetone respectively, then added with 80 tween and diluted by certain amount of water to certain concentration. The solution was sprayed to the plants with a sprayer. Then the plants were cultured for 3 weeks in the greenhouse.

[2] = test system: main crop (wheat, corn, rice, soybean, cotton, oilseed, millet and sorghum); experiment: Post-emergence test experiment, main crops (Table 2); type: in vivo; design: key: Level 10: completely dead; Level 9: above 90% growth inhibition rate; Level 8: above 80% growth inhibition rate; Level 7: above 70% growth inhibition rate; Level 6: above 60% growth inhibition rate; Level 5: above 50% growth inhibition rate; Level 4: above 30% growth inhibition rate; Level 3: above 20% growth inhibition rate; Level 2: above 10% growth inhibition rate; Level 1: above 1-10% growth inhibition rate; Level 0: no effect; settings: 3 weeks after spraying, greenhouse
Method: as §1

| Compound | weed control effect, Abutilon theophrasti (level) ([1]; 60 g/ha) | weed control effect, Bidens pilosa (level) ([1]; 60 g/ha) | weed control effect, Digitaria sanguinalis (level) ([1]; 60 g/ha) | weed control effect, Echinochloa crus-galli (level) ([1]; 60 g/ha) | weed control effect, Rorippa indica (level) ([1]; 60 g/ha) | weed control effect, Setaria viridis (level) ([1]; 60 g/ha) | effect on crop, corn (level) ([2]; 60 g/ha) | effect on crop, rice (level) ([2]; 60 g/ha) | effect on crop, wheat (level) ([2]; 60 g/ha) | weed control effect, Abutilon theophrasti (level) ([1]; 120 g/ha) | weed control effect, Bidens pilosa (level) ([1]; 120 g/ha) | weed control effect, Digitaria sanguinalis (level) ([1]; 120 g/ha) | weed control effect, Echinochloa crus-galli (level) ([1]; 120 g/ha) | weed control effect, Rorippa indica (level) ([1]; 120 g/ha) | weed control effect, Setaria viridis (level) ([1]; 120 g/ha) | effect on crop, corn (level) ([2]; 120 g/ha) | effect on crop, rice (level) ([2]; 120 g/ha) | effect on crop, wheat (level) ([2]; 120 g/ha) |
| --- | --- | --- | --- | --- | --- | --- | --- | --- | --- | --- | --- | --- | --- | --- | --- | --- | --- | --- |
| Cc1nn(C)cc1C(=O)Oc1c(C(=O)c2ccc(S(C)(=O)=O)c(Cn3cccn3)c2Cl)c(C)nn1C [Compound 01] | 10 | 8 (Level 8: above 80% growth inhibition rate) | 10 | 10 | 10 | 10 | 1 (Level 1: above 1-10% growth inhibition rate) | 1 (Level 1: above 1-10% growth inhibition rate) | 1 (Level 1: above 1-10% growth inhibition rate) |  |  |  |  |  |  |  |  |  |
| Cc1cc(C)n(Cc2c(S(C)(=O)=O)ccc(C(=O)c3c(C)nn(C)c3OC(=O)c3cn(C)nc3C)c2Cl)n1 [Compound 03] |  |  |  |  |  |  |  |  |  | 4 (Level 4: above 30% growth inhibition rate) | 6 (Level 6: above 60% growth inhibition rate) | 0 | 10 | 0 | 6 (Level 6: above 60% growth inhibition rate) | 0 | 0 | 0 |
| Cc1cnn(Cc2c(S(C)(=O)=O)ccc(C(=O)c3c(C)nn(C)c3OC(=O)c3cn(C)nc3C)c2Cl)c1 [Compound 04] |  |  |  |  |  |  |  |  |  | 6 (Level 6: above 60% growth inhibition rate) | 6 (Level 6: above 60% growth inhibition rate) | 1 (Level 1: above 1-10% growth inhibition rate) | 10 | 4 (Level 4: above 30% growth inhibition rate) | 5 (Level 5: above 50% growth inhibition rate) | 0 | 0 | 0 |
| Cc1nn(C)cc1C(=O)Oc1c(C(=O)c2ccc(S(C)(=O)=O)c(Cn3cc(Cl)cn3)c2Cl)c(C)nn1C [Compound 05] |  |  |  |  |  |  |  |  |  | 9 (Level 9: above 90% growth inhibition rate) | 8 (Level 8: above 80% growth inhibition rate) | 9 (Level 9: above 90% growth inhibition rate) | 10 | 10 | 5 (Level 5: above 50% growth inhibition rate) | 0 | 1 (Level 1: above 1-10% growth inhibition rate) | 0 |
| Cc1cnn(Cc2c(S(C)(=O)=O)ccc(C(=O)c3cnn(C)c3OC(=O)c3cn(C)nc3C)c2Cl)c1 [Compound 07] |  |  |  |  |  |  |  |  |  | 6 (Level 6: above 60% growth inhibition rate) | 6 (Level 6: above 60% growth inhibition rate) | 1 (Level 1: above 1-10% growth inhibition rate) | 10 | 4 (Level 4: above 30% growth inhibition rate) | 5 (Level 5: above 50% growth inhibition rate) | 0 | 0 | 0 |
| Cc1nn(C)cc1C(=O)Oc1c(C(=O)c2ccc(S(C)(=O)=O)c(Cn3cccn3)c2Cl)cnn1C [Compound 08] | 10 | 8 (Level 8: above 80% growth inhibition rate) | 7 (Level 7: above 70% growth inhibition rate) | 9 (Level 9: above 90% growth inhibition rate) | 10 | 7 (Level 7: above 70% growth inhibition rate) | 1 (Level 1: above 1-10% growth inhibition rate) | 1 (Level 1: above 1-10% growth inhibition rate) | 1 (Level 1: above 1-10% growth inhibition rate) |  |  |  |  |  |  |  |  |  |
| Cc1ccn(Cc2c(S(C)(=O)=O)ccc(C(=O)c3c(C4CC4)nn(C)c3OC(=O)c3cn(C)nc3C)c2Cl)n1 [Compound 09] |  |  |  |  |  |  |  |  |  | 7 (Level 7: above 70% growth inhibition rate) | 9 (Level 9: above 90% growth inhibition rate) | 2 (Level 2: above 10% growth inhibition rate) | 9 (Level 9: above 90% growth inhibition rate) | 10 | 6 (Level 6: above 60% growth inhibition rate) | 0 | 1 (Level 1: above 1-10% growth inhibition rate) | 0 |
| Cc1cc(C)n(Cc2c(S(C)(=O)=O)ccc(C(=O)c3c(C4CC4)nn(C)c3OC(=O)c3cn(C)nc3C)c2Cl)n1 [Compound 11] |  |  |  |  |  |  |  |  |  | 4 (Level 4: above 30% growth inhibition rate) | 6 (Level 6: above 60% growth inhibition rate) | 0 | 10 | 0 | 6 (Level 6: above 60% growth inhibition rate) | 0 | 0 | 0 |
| Cc1cnn(Cc2c(S(C)(=O)=O)ccc(C(=O)c3c(C4CC4)nn(C)c3OC(=O)c3cn(C)nc3C)c2Cl)c1 [Compound 12] |  |  |  |  |  |  |  |  |  | 6 (Level 6: above 60% growth inhibition rate) | 6 (Level 6: above 60% growth inhibition rate) | 0 | 10 | 4 (Level 4: above 30% growth inhibition rate) | 1 (Level 1: above 1-10% growth inhibition rate) | 0 | 0 | 0 |
| Cc1nn(C)cc1C(=O)Oc1c(C(=O)c2ccc(S(C)(=O)=O)c(Cn3cccn3)c2Cl)c(C2CC2)nn1C [Compound 13] | 10 | 8 (Level 8: above 80% growth inhibition rate) | 10 | 10 | 10 | 7 (Level 7: above 70% growth inhibition rate) | 0 | 1 (Level 1: above 1-10% growth inhibition rate) | 1 (Level 1: above 1-10% growth inhibition rate) |  |  |  |  |  |  |  |  |  |
| Cc1cnn(Cc2c(S(C)(=O)=O)ccc(C(=O)c3c(C)nn(C)c3OC(=O)c3cnn(C)c3)c2Cl)c1 [Compound 14] |  |  |  |  |  |  |  |  |  | 6 (Level 6: above 60% growth inhibition rate) | 6 (Level 6: above 60% growth inhibition rate) | 0 | 10 | 4 (Level 4: above 30% growth inhibition rate) | 1 (Level 1: above 1-10% growth inhibition rate) | 0 | 0 | 0 |
